{"source": "patent US20220152044A1", "about": "“TREATMENT OF INFLAMMATORY DISEASES OF THE CENTRAL NERVOUS SYSTEM” (PALMAYA PTY LTD, priority 2019, published 2022)", "format_in_all_cases": "in vivo, human", "key": {"[1]": {"test_system": "migraine", "assay": "Treatment of migraine in a person with flumazenil infusion and subcutaneous implants", "protocol": "The patient recently presented to our clinic, and was treated with flumazenil given subcutaneously at a rate of 160 micrograms per hour, delivered by a spring driven pump for a continuous period of time. The time that the migraines regularly occurred was the week prior to menstruation.\nThe patient was then treated with a subcutaneous implant delivering an estimated 60-80 micrograms per hour of flumazenil (based on water bath release rate testing). The implant was expected to last 8-10 weeks. This prevented the migraines for about 9-10weeks. In the week before the implant was inserted, the patient's blood flumazenil level was noted to be 0.5 ng/ml. The usual expected level for 160 microgram an hour infusions was in the order of 2-3 ng per ml and 1-1.5 ng for 80 microgram per hour infusions.\nThis finding that the migraines were stopped for a nine week period of time was amazing to the patient as they had suffered migraines for typically three weeks out of four for all of the years […]. At the end of week 8 on the first implant their blood flumazenil level was recorded as 0.5 ng per ml, which is considered a low level. Within a week another migraine started and the patient presented to the clinic for treatment.\nA further subcutaneous implant was inserted and within four hours all symptoms from the migraine had settled. This was most unusual and unexpected as the symptoms following migraines usually persisted many days for this patient.\nThis next implant was also delivering an estimated 60-80 micrograms of flumazenil per hour. Evidence of ovulation was confirmed by routine elevation of progesterone during the luteal phase of one of the two cycles during the time of this second implant. Again no migraines occurred during an 8-9 week time of the second implant. Blood levels of flumazenil at 1.2 and 1.3 ng/ml were recorded during the time of the second implant. After 9-10 weeks the patient, presented to a teaching hospital on the weekend with another migraine. They were treated with all the modern treatments for migraines without resolution of the migraine.\nA few days later a third implant was inserted. It again was surprising that all symptoms relating to the migraine settled within four hours."}, "[2]": {"test_system": "smoking of nicotine cigarettes", "assay": "Smoking of nicotine cigarettes in a group of 80 patients treated with flumazenil", "from_the_text": "We have found a reduction in smoking of nicotine cigarettes with the use of flumazenil. We were able to document that those smoking changed from 82.7% before treatment to 75% following treatment in a group of 80 patients being treated with flumazenil."}, "[3]": {"test_system": "cannabis use", "assay": "Survey of 109 patients, cannabis use after flumazenil infusion", "from_the_text": "In a survey of 109 patients daily use was close to halved from 10% to 5.5%."}, "[4]": {"test_system": "any dependency", "assay": "Detoxification from any dependency, 108 patients followed"}, "[5]": {"assay": "Swelling at the site of subcutaneous injection of flumazenil solution", "settings": "16 mg per 30 ml solution, 4 mg in 7.5 ml a day versus standard ampoules 4 mg in 40 ml", "protocol": "In our experience, this is the first flumazenil solution prepared for subcutaneous delivery making it possible to deliver 4 mg of flumazenil in a volume of just 7.5 ml per day. Clinically, this is preferred to the standard flumazenil preparations, which involve injecting 4 mg in 40 ml per day. For example, the lower volume results in less swelling at the site of injection.\nDuring our development of flumazenil ampoules we have found the preferred pH is about 4±1. In addition, the volume and dilution of flumazenil is preferably 16 mg per 30 ml. In our experience this was the first flumazenil made for subcutaneous delivery, and therefore, a dose of flumazenil at 4 mg can be administered in a volume of only 7.5 ml a day. Clinically, this is more convenient than the standard flumazenil ampoules which involve injecting 4 mg in a volume of 40 ml. […] In addition, the packaging of a dose of flumazenil of 16 mg in 30 ml enables clinical staff to use one ampoule for 4 days at 4 mg a day and one ampoule for 8 days at doses of 2 mg per day."}, "[6]": {"test_system": "premenstrual tension", "assay": "Premenstrual anxiety and symptoms in women treated with flumazenil", "settings": "women complaining of premenstrual tension"}, "[7]": {"test_system": "psychosis", "assay": "Drug or anxiety induced episodes of psychosis at detoxification", "settings": "patients with history of psychosis after ceasing cannabis, amphetamines and alcohol; sustained delivery"}, "[8]": {"test_system": "cannabis withdrawal", "assay": "Withdrawal from cannabis with high THC concentrations", "settings": "flumazenil 160 μg/hour", "from_the_text": "Cannabis use has changed in recent years with a significant cohort describing high tetrahydrocannabinol (THC) concentrations in potent strains which are cultivated for their high THC content. In the patient group using these high concentrations of THC, we have noted that a group of patients give a clear cut history of extreme nausea, vomiting, anxiety changing to serious paranoid thoughts and delusions followed by psychosis over the first 3-5 days of ceasing drug use.\nIn a severe patient population, ondansetron may be given every 6-8 hours to assist in reducing the nausea and associated anxiety symptoms.\nOur results indicated a clear reduction in anxiety, and paranoid symptoms, allowing patients who otherwise would be unable to cope with the symptoms, to cease cannabis use."}, "[9]": {"test_system": "anxiety", "assay": "Anxiety during and after medication delivery", "settings": "flumazenil infusions; for many patients continued for very long periods afterwards", "from_the_text": "These observations appeared to indicate a cure or recovery of the patients underlying disease rather than relief of symptoms only. These observations included patients treated in five other years as well as the group treated in 2016-2017."}}, "data": [{"molecule": "CCOC(=O)c1ncn2c1CN(C)C(=O)c1cc(F)ccc1-2", "note": "[flumazenil]", "values": [{"measurement": "time until all symptoms from the migraine had settled", "setting": "[1]; after insertion of the further (second) subcutaneous implant", "value": "four"}, {"measurement": "time until all symptoms relating to the migraine settled", "setting": "[1]; after insertion of the third implant", "value": "four"}, {"measurement": "time without migraines", "setting": "[1]; second implant, estimated 60-80 micrograms flumazenil per hour", "value": "8-9 week"}, {"measurement": "occurrence of migraine at the expected time (week prior to menstruation)", "setting": "[1]; subcutaneous infusion 160 micrograms per hour by spring driven pump", "value": "did not occur"}, {"measurement": "fall in those using (smoking) daily", "setting": "[2]; from 78.1% to 71.4%", "value": 4, "unit": "%"}, {"measurement": "those smoking following treatment", "setting": "[2]; group of 80 patients, 82.7% before treatment", "value": 75, "unit": "%"}, {"measurement": "those using (smoking) daily following treatment", "setting": "[2]; same population, 78.1% before treatment", "value": 71.4, "unit": "%"}, {"measurement": "daily cannabis use following treatment", "setting": "[3]; 109 patients, 10% before", "value": 5.5, "unit": "%"}, {"measurement": "abstinence from cannabis following treatment", "setting": "[3]; 109 patients, 75% before", "value": 83.5, "unit": "%"}, {"measurement": "patient-reported cannabis cessation symptoms (nausea day one, anxiety, sleep, paranoid and psychotic thinking, suicidal thoughts)", "setting": "[3]; patients who presented to cease cannabis", "value": "anxiety was decreased and sleep was better"}, {"measurement": "daily use of alcohol, smoking, cannabis, amphetamines, opioids and other drug use", "setting": "[4]", "value": "reduction in daily use"}, {"measurement": "swelling of the tissues at the site of injection", "setting": "[5]", "value": "less swelling"}, {"measurement": "premenstrual symptoms", "setting": "[6]", "value": "reduction in premenstrual symptoms"}, {"measurement": "onset of psychosis with detoxification", "setting": "[7]", "value": "prevents the onset of psychosis"}, {"measurement": "nausea, vomiting, anxiety, paranoid thoughts, delusions, psychosis on ceasing high-THC cannabis", "setting": "[8]", "value": "controls or reduces the presence of these symptoms"}, {"measurement": "anxiety during the time of medication delivery", "setting": "[9]", "value": "reduction of anxiety"}]}]}
